Data reported in the supplement of paper PMC8882468.
Several values for one entry are separate records, joined by “and”; a condition that tells them apart may be missing. Equal entries are not always repeated.

How the values were obtained:
Assay in all cases: CTG-3D luminescence at 96 h relative to day-0 seeding control (ratio to day 0); higher = more growth / less cytotoxicity; PDxO 3D drug screen (set 2), 96 h, CTG-3D normalised to day-0 seeding control.
[1] = tested on: HCI-023 (organoid from a triple-negative breast cancer xenograft)
[2] = tested on: HCI-001 (organoid from a triple-negative breast cancer xenograft)
[3] = tested on: HCI-010 (organoid from a breast cancer xenograft)
[4] = tested on: MDA-MB-231
[5] = tested on: HCI-017.E2 (organoid from an ER-positive breast cancer xenograft)

CS(=O)(=O)CCNCc1ccc(-c2ccc3ncnc(Nc4ccc(OCc5cccc(F)c5)c(Cl)c4)c3c2)o1 [lapatinib]
CTG-3D luminescence at 96 h
Settings	12.5 pM	0.00025 µM	0.005 µM	0.1 µM	1 µM	10 µM	100 µM	625 fM
[1], days in culture: 223	1.82	2.13	1.85	2.09	1.46	0.716	0.00541	1.72
[1], days in culture: 238	1.38	1.57	1.41	1.6	1.91	0.911	0.00517	1.57
[1], days in culture: 252	2.21	2.11	1.77	1.94	1.86	1.14	0.00206	1.9
[2], days in culture: 365	2.34	2.26	2.24	2.56	1.9	1.3	0.109	1.46
[2], days in culture: 397	1.64	2.11	2.14	1.37	1.64	1.63	0.127	1.29
[2], days in culture: 401	1.46	1.83	1.73	1.59	1.25	1.44	0.0402	1.52
[3], days in culture: 79	1.89	1.81	2.03	2.16	2.02	0.69	-0.00188	2.06
[3], days in culture: 86	2.21	2.38	2.53	2.49	2.33	0.631	0.0027	2.48
[3], days in culture: 102	1.1	1.16	1.11	1.32	1.48	0.154	8.25e-05	1.09
[3], days in culture: 164	1.78	1.5	1.5	1.46	1.78	0.353	0.000987	1.63
[5], days in culture: 85	2.34	1.93	1.68	2.32	1.61	0.581	0.0189	2.45

CTG-3D luminescence at 96 h
Settings	12.5 pM	0.00025 µM	0.005 µM	0.1 µM	1 µM	10 µM	100 µM	625 fM
[4]	5.64 and 5.22	5.66 and 5.01	5.76 and 5.34	5.51 and 5.1	5.57 and 4.9	–	0.00446 and 0.0132	5.54 and 5.06
[5]	2.11	2.75	2.4	2.37	1.95	0.905	0.00683	2.65

Nc1cc(C(F)(F)F)c(-c2cc(N3CCOCC3)nc(N3CCOCC3)n2)cn1 [buparlisib]
CTG-3D luminescence at 96 h
Settings	12.5 pM	0.00025 µM	0.005 µM	0.1 µM	1 µM	10 µM	100 µM	625 fM
[1], days in culture: 223	2.1	2.58	1.97	2.26	0.929	0.895	1.04	2.64
[1], days in culture: 238	1.41	1.77	1.57	1.4	1.23	0.672	0.628	1.46
[1], days in culture: 252	2.06	2.07	1.65	2.23	1.58	0.8	0.794	2.06
[2], days in culture: 365	3.09	2.29	2.5	3.19	1.82	0.687	0.646	1.89
[2], days in culture: 397	1.95	2.38	2.48	2.22	1.46	0.715	0.507	1.44
[2], days in culture: 401	1.47	1.87	1.41	1.86	1.11	0.572	0.512	1.76
[3], days in culture: 79	1.69	1.83	1.84	1.83	1.02	0.456	0.0891	2
[3], days in culture: 86	2	2.29	2.49	2.33	1.36	0.525	0.146	2.19
[3], days in culture: 102	1.08	1.24	1.36	1.38	0.738	0.309	0.0336	0.982
[3], days in culture: 164	1.62	1.52	1.57	1.65	1.04	0.556	0.11	1.37
[5], days in culture: 85	2.1	1.79	1.67	1.9	0.668	0.194	0.256	2.53

CTG-3D luminescence at 96 h
Settings	12.5 pM	0.00025 µM	0.005 µM	0.1 µM	1 µM	10 µM	100 µM	625 fM
[4]	5.18	5.23	5.28	5.17	4.45	2.28	2.15	5.31
[5]	1.864	2.59	2.12	2.15	0.869	0.263	0.208	2.26

CCOc1ccn(-c2ccc(F)cc2)c(=O)c1C(=O)Nc1ccc(Oc2ccnc(N)c2Cl)c(F)c1 [ASLAN002]
CTG-3D luminescence at 96 h
Settings	12.5 pM	0.00025 µM	0.005 µM	0.1 µM	1 µM	10 µM	100 µM	625 fM
[1], days in culture: 223	1.5	2.83	1.7	2.8	1.5	1.49	1.03	1.61
[1], days in culture: 238	1.66	1.62	1.17	1.42	1.76	1.05	0.917	1.58
[1], days in culture: 252	1.99	1.93	1.78	2.01	2.08	1.47	1.15	2.04
[2], days in culture: 365	2.86	2.78	2.5	3.1	2.44	1.84	1.6	1.69
[2], days in culture: 397	1.79	2.1	2.38	1.93	2.27	2.43	1.01	1.87
[2], days in culture: 401	1.59	1.66	1.76	1.83	1.66	1.29	0.84	1.76
[3], days in culture: 79	1.78	1.68	1.94	2.05	1.8	1.55	0.742	1.97
[3], days in culture: 86	2.24	2.35	2.82	2.77	2.48	2.23	0.77	2.51
[3], days in culture: 102	1.1	1.26	1.21	1.48	1.41	1.14	0.252	0.941
[3], days in culture: 164	1.62	1.61	1.72	1.74	1.66	1.3	0.248	1.36
[5], days in culture: 85	2.5	1.78	1.94	2.7	2.23	1.93	1.32	2.13

CTG-3D luminescence at 96 h
Settings	12.5 pM	0.00025 µM	0.005 µM	0.1 µM	1 µM	10 µM	100 µM	625 fM
[4]	5.15	5.18	5.26	5.15	5.49	4.89	3.8	5.36
[5]	2.06	2.58	2.12	2.27	2.14	2.39	1.17	2.34

CC(=O)O[C@@]12CO[C@@H]1C[C@H](O)[C@@]1(C)C(=O)[C@H](O)C3=C(C)[C@@H](OC(=O)[C@H](O)[C@@H](NC(=O)OC(C)(C)C)c4ccccc4)C[C@@](O)([C@@H](OC(=O)c4ccccc4)[C@H]21)C3(C)C [docetaxel]
CTG-3D luminescence at 96 h
Settings	12.5 pM	0.00025 µM	0.005 µM	0.1 µM	1 µM	10 µM	100 µM	625 fM
[1], days in culture: 223	0.666	0.731	0.679	0.597	0.578	0.746	0.0587	0.745
[1], days in culture: 238	0.654	0.598	0.69	0.7	0.901	0.651	0.265	0.619
[1], days in culture: 252	1.03	0.858	0.757	1.04	0.812	1.27	0.603	1.14
[2], days in culture: 365	1.99	1.78	1.68	1.79	1.49	1.18	1.1	1.34
[2], days in culture: 397	1.11	1.7	1.28	1.67	1.72	1.72	0.311	0.889
[2], days in culture: 401	1	1.57	0.829	1.35	1.02	1.19	0.514	1.16
[3], days in culture: 79	1.26	1.41	1.14	0.967	0.815	0.987	0.000117	1.74
[3], days in culture: 86	2.16	2.35	2.01	0.907	0.734	0.847	0.00279	2.24
[3], days in culture: 102	1.2	0.987	0.747	0.491	0.519	0.375	0.00091	1.07
[3], days in culture: 164	1.68	1.45	1.1	0.611	0.719	0.646	0.00438	1.43
[5], days in culture: 85	2.47	1.92	0.986	0.975	0.797	0.598	0.154	2.7

CTG-3D luminescence at 96 h
Settings	12.5 pM	0.00025 µM	0.005 µM	0.1 µM	1 µM	10 µM	100 µM	625 fM
[4]	4.86 and 2.64	3.88 and 2.58	3.24 and 2.69	2.84 and 2.47	3.11 and 2.65	3.34 and 2.92	1.24 and 1.2	4.81 and 2.82
[5]	1.34	1.47	1.2	1.36	1.14	0.78	0.13	1.38
